Test results taken from ChEMBL document CHEMBL3232938, “Design, synthesis, and biological evaluation of dihydroartemisinin-fluoroquinolone conjugates as a novel type of potential antitubercular agents” (2014).
Values after ≈ are worked out from the molar mass of the structure shown.

Columns and labels:
Type in all cases: functional
Salmonella [1] = assay: Antibacterial activity against Salmonella assessed as growth inhibition after 7 days by microtiter plate assay; conditions: 168 h
Pseudomonas aeruginosa [2] = assay: Antibacterial activity against Pseudomonas aeruginosa assessed as growth inhibition after 7 days by microtiter plate assay; conditions: 168 h
Staphylococcus aureus [3] = assay: Antibacterial activity against Staphylococcus aureus assessed as growth inhibition after 7 days by microtiter plate assay; conditions: 168 h
Escherichia coli [4] = assay: Antibacterial activity against Escherichia coli assessed as growth inhibition after 7 days by microtiter plate assay; conditions: 168 h
Escherichia coli [5] = assay: Antibacterial activity against duck Escherichia coli assessed as growth inhibition after 7 days by microtiter plate assay; conditions: 168 h
Salmonella [6] = assay: Antibacterial activity against Salmonella assessed as zone of inhibition at 2 ug/ml; conditions: read-out: DIZ
Pseudomonas aeruginosa [7] = assay: Antibacterial activity against Pseudomonas aeruginosa assessed as zone of inhibition at 2 ug/ml; conditions: read-out: DIZ
Staphylococcus aureus [8] = assay: Antibacterial activity against Staphylococcus aureus assessed as zone of inhibition at 2 ug/ml; conditions: read-out: DIZ
Escherichia coli [9] = assay: Antibacterial activity against Escherichia coli assessed as zone of inhibition at 2 ug/ml; conditions: read-out: DIZ
Escherichia coli [10] = assay: Antibacterial activity against duck Escherichia coli assessed as zone of inhibition at 2 ug/ml; conditions: read-out: DIZ
[11] = test system: Mycobacterium tuberculosis; assay: Antibacterial activity against Mycobacterium tuberculosis H37Rv ATCC 27294 assessed as growth inhibition after 7 days by microtiter plate assay; conditions: H37Rv ATCC 27294, 168 h
[12] = test system: Mycobacterium tuberculosis; assay: Antibacterial activity against drug-sensitive 1 ug/ml Mycobacterium tuberculosis clinical isolate 741 assessed as growth inhibition after 7 days by microtiter plate assay; conditions: isolate 741, 168 h
[13] = test system: Mycobacterium tuberculosis; assay: Antibacterial activity against drug-sensitive 1 ug/ml Mycobacterium tuberculosis clinical isolate 753 assessed as growth inhibition after 7 days by microtiter plate assay; conditions: isolate 753, 168 h
[14] = test system: Mycobacterium tuberculosis; assay: Antibacterial activity against drug-sensitive 1 ug/ml Mycobacterium tuberculosis clinical isolate 758 assessed as growth inhibition after 7 days by microtiter plate assay; conditions: isolate 758, 168 h
[15] = test system: Mycobacterium tuberculosis; assay: Antibacterial activity against drug-sensitive 1 ug/ml Mycobacterium tuberculosis clinical isolate 760 assessed as growth inhibition after 7 days by microtiter plate assay; conditions: isolate 760, 168 h
[16] = test system: Mycobacterium tuberculosis; assay: Antibacterial activity against drug-sensitive 1 ug/ml Mycobacterium tuberculosis clinical isolate 821 assessed as growth inhibition after 7 days by microtiter plate assay; conditions: isolate 821, 168 h

| SMILES | MIC (Salmonella [1]) | MIC (Pseudomonas aeruginosa [2]) | MIC (Staphylococcus aureus [3]) | MIC (Escherichia coli [4]) | MIC (Escherichia coli [5]) | zone of inhibition at 2 µg/mL (Salmonella [6]) | zone of inhibition at 2 µg/mL (Pseudomonas aeruginosa [7]) | zone of inhibition at 2 µg/mL (Staphylococcus aureus [8]) | zone of inhibition at 2 µg/mL (Escherichia coli [9]) | zone of inhibition at 2 µg/mL (Escherichia coli [10]) | MIC [11] | MIC [12] | MIC [13] | MIC [14] | MIC [15] | MIC [16] |
| --- | --- | --- | --- | --- | --- | --- | --- | --- | --- | --- | --- | --- | --- | --- | --- | --- |
| O=C(O)c1cn(-c2ccc(F)cc2)c2cc(N3CCNCC3)c(F)cc2c1=O [SARAFLOXACIN] | 16 µg/mL (≈ 41.5 µM) | 2 µg/mL (≈ 5.19 µM) | 16 µg/mL (≈ 41.5 µM) | 0.5 µg/mL (≈ 1.3 µM) | 4 µg/mL (≈ 10.4 µM) | 25 mm | 20 mm | < 5 mm | 24 mm | 38 mm | 5.19 µM (≈ 2 µg/mL) | 16 µg/mL (≈ 41.5 µM) | 8 µg/mL (≈ 20.8 µM) | 8 µg/mL (≈ 20.8 µM) | 8 µg/mL (≈ 20.8 µM) | 8 µg/mL (≈ 20.8 µM) |
| CCn1cc(C(=O)O)c(=O)c2cc(F)c(N3CCNCC3)cc21 [NORFLOXACIN] | 16 µg/mL (≈ 50.1 µM) | 2 µg/mL (≈ 6.26 µM) | 16 µg/mL (≈ 50.1 µM) | 2 µg/mL (≈ 6.26 µM) | 4 µg/mL (≈ 12.5 µM) | 17 mm | 16 mm | < 5 mm | 18 mm | 33 mm | 6.26 µM (≈ 2 µg/mL) | 8 µg/mL (≈ 25.1 µM) | 4 µg/mL (≈ 12.5 µM) | 4 µg/mL (≈ 12.5 µM) | 4 µg/mL (≈ 12.5 µM) | 4 µg/mL (≈ 12.5 µM) |
| NC1CCN(c2c(F)cc3c(=O)c(C(=O)O)cn(C4CC4)c3c2Cl)C1 (centres undefined) [CLINAFLOXACIN] | 4 µg/mL (≈ 10.9 µM) | 0.5 µg/mL (≈ 1.37 µM) | 2 µg/mL (≈ 5.47 µM) | 0.25 µg/mL (≈ 0.683 µM) | 4 µg/mL (≈ 10.9 µM) | 28 mm | 32 mm | 21 mm | 25 mm | 43 mm | 0.43 µM (≈ 0.157 µg/mL) | 1 µg/mL (≈ 2.73 µM) | 0.5 µg/mL (≈ 1.37 µM) | 0.25 µg/mL (≈ 0.683 µM) | 0.25 µg/mL (≈ 0.683 µM) | 1 µg/mL (≈ 2.73 µM) |
| C[C@H]1[C@@H](O)O[C@@H]2O[C@@]3(C)CC[C@H]4[C@H](C)CC[C@@H]1[C@@]24OO3 [ARTENIMOL] | 16 µg/mL (≈ 56.3 µM) | 16 µg/mL (≈ 56.3 µM) | 16 µg/mL (≈ 56.3 µM) | 16 µg/mL (≈ 56.3 µM) | 4 µg/mL (≈ 14.1 µM) | < 5 mm | < 5 mm | < 5 mm | < 5 mm | < 5 mm | > 56 µM | > 16 µg/mL | > 16 µg/mL | > 16 µg/mL | > 16 µg/mL | > 16 µg/mL |
